Laboratory results reported in patent US10253060B2, “Terpenoid derivatives” (Daiichi Sankyo Company, Limited, priority 2013, dated 2019).

Experiments:
[1] = tested on: ARPE-19 cells; assay: Cytotoxicity, LDH-Cytotoxic Test in ARPE-19 cells; format: cell-based, human; settings: 10 μM, approx. 16 hours, 3 wells
Experimental: ARPE-19 cells (human retinal pigment epithelium cell line, ATCC, catalog No. CRL-2302) were cultured (5% CO2, 37° C.). A DMEM/F12 (Life Technologies Japan Ltd., catalog No. 11330-032) mixed medium containing 10% inactivated FBS was used. The medium contained 100 units/mL (final concentration) penicillin and 100 μg/[…] (final concentration) streptomycin.
The ARPE-19 cells were seeded at 5000 cells/well in a 96-well plate. The amount of the medium was 50 μL. Approximately 3 hours later, 50 μL of a medium containing CDDO-Me or each of terpenoid derivatives A to H was added thereto, followed by culture for approximately 16 hours. Then, cytotoxicity was evaluated using LDH-Cytotoxic Test (Wako Pure Chemical Industries, Ltd., catalog No. 299-50601). The evaluation method followed the attached document. Each group consisted of 3 wells and was indicated as cytotoxicity at the concentration of 10 μM. The means thereof were 43% for CDDO-Me, 2% for terpenoid derivative A, 2% for terpenoid derivative B, 2% for terpenoid derivative C, 1% for terpenoid derivative D, 2% for terpenoid derivative E, 3% for terpenoid derivative F, 3% for terpenoid derivative G, and 1% for terpenoid derivative H. Terpenoid derivatives A to H were low in cytotoxicity as compared with CDDO-Me.

[2] = tested on: NQO1; assay: NQO1 assay in Hepa1c1c7 cells; format: cell-based, mouse; settings: approx. 48 hours, mean of 3 wells
Experimental: Hepa1c1c7 cells (mouse hepatic cell line, ATCC, catalog No. CRL-2026) were cultured (5% CO2, 37° C.). A DMEM (Life Technologies Japan Ltd., catalog No. 11965-092) medium also containing 10% inactivated FBS was used. The medium contained 100 units/mL (final concentration) penicillin and 100 μg/[…] (final concentration) streptomycin. The NQO1 assay was conducted according to previous reports (Anal Biochem 1998; 169: 328-; and Methods Enzymol 2004; 382: 243-).
The Hepa1c1c7 cells were seeded at 10000 cells/well in a 96-well plate. The amount of the medium was 100 μL. Approximately 24 hours later, the medium was replaced with a medium containing CDDO-Me or each of terpenoid derivatives A to G, followed by further culture for approximately 48 hours. A lysis solution (a solution containing 2 mM EDTA and 0.8% digitonin), a reaction solution (a solution containing 0.025 M of tris-HCl, 0.067% of albumin, 0.01% of Tween-20, 2 U/mL of glucose-6-phosphate dehydrogenase, 5 μM of flavin adenine dinucleotide, 1 […], 30 μM of nicotinamide adenine dinucleotide phosphate, 0.03% of 3-(4,5-dimethyl-2-thiazolyl)-2,5-diphenyltetrazolium bromide (MTT), and 50 μM of menadione), and a stop solution (a solution containing 0.3 mM dicumarol and 5 mM potassium dihydrogen phosphate, pH 7.4) were prepared. After removal of the medium, 50 μL of the lysis solution was added thereto, and the mixture was left standing at 37° C. for 10 minutes. The reaction mixture was further shaken at room temperature for 10 minutes.
Two hundred μL of the solution was added thereto, and the mixture was left standing at room temperature for 5 minutes. Fifty μL of the stop solution was added thereto, and the absorbance at 490 nm was measured.
The test results were analyzed using Prism (GraphPad Software, Inc., Ver. 5) to calculate the CD value of the concentration at which the activity of NQO1 was increased 2-fold. Each group consisted of 3 wells and indicated as a mean of CD values.

[3] = tested on: ARPE-19 cells; assay: Cytoprotective action: suppression of t-BHP-induced decrease in number of live ARPE-19 cells; format: cell-based, human; settings: 300 μM t-BHP; for Number of live cells (percentage): no t-BHP/no compound = 100%, mean ± SD, 3 wells
Experimental: The peroxide tert-butyl hydroperoxide (t-BHP) is known to cause oxidative stress-dependent cell injury (Chem Biol Interact 2009; 181: 366- and Food Chem Toxicol 2011; 49: 2081-).
The test compound was terpenoid derivative B of the present invention obtained in Example 1 and CDDO-Me as Comparative Example.
ARPE-19 cells were cultured (5% CO2, 37° C.) using a DMEM/F12 (Life Technologies Japan Ltd., catalog No. 11330-032) mixed medium containing 10% inactivated FBS. The medium contained 100 units/mL (final concentration) penicillin and 100 μg/mL (final concentration) streptomycin.
The ARPE-19 cells were seeded at 10000 cells/well in a 96-well plate. The amount of the medium was 100 μL. Approximately 6 hours later, the medium was replaced with a medium containing terpenoid derivative B of the present invention obtained in Example 1 or CDDO-Me. After culture for approximately 16 hours, the number of live ARPE-19 cells was measured (Cell Counting Kit-8 (catalog No. CK01) manufactured by Dojindo Laboratories was used). Then, the medium was replaced with medium containing 300 μM t-BHP (manufactured by Sigma-Aldrich Corp., catalog No. 46665) and further containing terpenoid derivative B of the present invention obtained in Example 1 or CDDO-Me. Approximately 6 hours after the addition of t-BHP, the number of live ARPE-19 cells was measured.
The number of live cells in medium containing neither t-BHP nor the test compound was defined as 100%. The number of live cells in medium containing 300 μM t-BHP and each concentration of the test compound was indicated by percentage. Each group consisted of 3 wells and was indicated as a mean and standard deviation.

| Structure (SMILES) | cytotoxicity (LDH-Cytotoxic Test), mean [1] [%] | CD value (concentration at which the activity of NQO1 was increased 2-fold) [2] [nM] | Number of live cells (percentage) ([3]; 0.03 nM test compound) [%] | Number of live cells (percentage) ([3]; 0.3 nM test compound) [%] | Number of live cells (percentage) ([3]; 3 nM test compound) [%] | Number of live cells (percentage) ([3]; 30 nM test compound) [%] | Number of live cells (percentage) ([3]; 300 nM test compound) [%] | suppression of the decrease in the number of live cells caused by t-BHP (in words) [3] |
| --- | --- | --- | --- | --- | --- | --- | --- | --- |
| COC(=O)[C@@]12CC[C@]3(C)[C@H](C(=O)C=C4[C@@]5(C)[C@H]6O[C@@]6(C#N)C(=O)C(C)(C)[C@@H]5CC[C@]43C)[C@@H]1CC(C)(C)[C@@H](O)C2 [terpenoid derivative B] | 2 | 0.3 | 90.3 ± 3.9 | 99.0 ± 10.0 | 119.7 ± 5.7 | 114.3 ± 9.5 | 111.2 ± 3.8 |  |
| COC(=O)[C@]12CCC(C)(C)C[C@H]1[C@H]1C(=O)C=C3[C@@]4(C)C=C(C#N)C(=O)C(C)(C)[C@@H]4CC[C@@]3(C)[C@]1(C)CC2 [CDDO-Me, methyl 2-cyano-3,12-dioxooleana-1,9-dien-28-oate, reference compound] | 43 | 1.0 | 61.8 ± 2.0 | 56.7 ± 1.2 | 74.3 ± 1.4 | 84.7 ± 4.8 | 76.1 ± 2.8 | did not completely suppress the decrease in the number of live cells |
